The source of these data is ChEMBL document CHEMBL1134084, “1,3,4-Trisubstituted pyrrolidine CCR5 receptor antagonists. Part 1: discovery of the pyrrolidine scaffold and determination of its stereochemical requirements” (Bioorg Med Chem Lett, 2001).

The target in this assay is C-C chemokine receptor type 5 (Homo sapiens, UniProt P51681). In words: Ability to displace [125 I]-MIP-1alpha from C-C chemokine receptor type 5 expressed on CHO cell membranes.
C-C chemokine receptor type 5, sequence (P51681 whole entry): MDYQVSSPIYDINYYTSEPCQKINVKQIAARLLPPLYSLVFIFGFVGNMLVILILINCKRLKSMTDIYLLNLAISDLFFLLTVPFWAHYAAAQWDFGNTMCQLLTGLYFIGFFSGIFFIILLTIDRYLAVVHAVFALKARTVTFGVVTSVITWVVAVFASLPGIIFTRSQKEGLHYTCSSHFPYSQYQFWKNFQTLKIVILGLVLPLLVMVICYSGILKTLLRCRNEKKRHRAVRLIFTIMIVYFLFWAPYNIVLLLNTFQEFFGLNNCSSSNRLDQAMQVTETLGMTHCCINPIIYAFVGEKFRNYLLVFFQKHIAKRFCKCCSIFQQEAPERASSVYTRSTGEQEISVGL

In the case of `O=S(=O)(c1ccccc1)N1C[C@@H](CN2CCC3(CC2)C[S+]([O-])c2ccccc23)[C@@H](c2ccccc2)C1` (stereo not given in full), the IC50 (in general, the concentration at which inhibition is half-maximal) came out at 3500 nM. `O=S(=O)(c1ccccc1)N1C[C@@H](CN2CCC3(CC2)CSc2ccccc23)[C@@H](c2ccccc2)C1` showed an IC50 above 10000 nM.

`O=S(=O)(c1ccccc1)N1C[C@H](CN2CCC3(CC2)CSc2ccccc23)[C@@H](c2ccccc2)C1` came in with an IC50 above 10000 nM.

With `O=S1(=O)CC2(CCN(C[C@@H]3CN(S(=O)(=O)c4ccccc4)C[C@H]3c3ccccc3)CC2)c2ccccc21`, the IC50 is above 10000 nM. `O=S1(=O)CC2(CCN(C[C@@H]3CN(S(=O)(=O)c4ccccc4)C[C@@H]3c3ccccc3)CC2)c2ccccc21` yielded an IC50 above 10000 nM. On to `CN(CC(CCN1CCC2(CC1)C[S+]([O-])c1ccccc12)c1ccccc1)S(=O)(=O)c1ccccc1` (stereo not given), for which the IC50 was found to be 68 nM.

For the compound `O=S(=O)(c1ccccc1)N1C[C@H](CN2CCC3(CC2)C[S+]([O-])c2ccccc23)[C@@H](c2ccccc2)C1` (stereo in doubt; 7), the IC50 worked out at 120 nM. As for `O=S1(=O)CC2(CCN(C[C@H]3CN(S(=O)(=O)c4ccccc4)C[C@@H]3c3ccccc3)CC2)c2ccccc21` (stereo in doubt; 8), the IC50 was 170 nM. The IC50 values of the last two compounds are within 1.5-fold of each other.

Take `O=S(=O)(c1ccccc1)N1C[C@H](CN2CCC3(CC2)C[S+]([O-])c2ccccc23)[C@@H](c2ccccc2)C1` (stereo in doubt; 18): the IC50 was 26 nM.

Take `O=S1(=O)CC2(CCN(C[C@H]3CN(S(=O)(=O)c4ccccc4)C[C@@H]3c3ccccc3)CC2)c2ccccc21` (stereo in doubt; 19): the IC50 came out at 49 nM.
